Assay results taken from patent US20160168140A1, “HETEROCYCLIC COMPOUNDS AS ANTIBIOTIC POTENTIATORS” (priority 2014, published 2016).

Test system: Acinetobacter baumannii (Ab23)
Assay: MIC shift assay of antibiotics (broth microdilution)
Format: cell-based
Settings: compound concentration 2 μM; fold shift of colistin MIC; nc = no changeover or no shift
Procedure: Minimum inhibitory concentration (MIC) shift assays were performed to determine if the test compounds could alter the MIC of existing antibacterial drugs (e.g., ciprofloxacin and colistin) for E. coli, Acinetobacter baumannii, Klebsiella pneumoniae, Pseudomonas aeruginosa, and Enterobacter cloacae. The MIC shift assay is based on the standard broth microdilution MIC determination protocol of Wiegand et al, Nat Protoc. 3(2):163-75 (2008), with slight modifications that allow for the screening of up to seven test compounds in a single plate.
On the day before an assay, bacteria were grown overnight in cation-adjusted Mueller Hinton broth (CAMHB; Teknova, Hollister, Calif.) at 37° C. in an orbital shaker and sub-cultured at a 1:200 dilution the following morning. The cells were grown to OD600=0.5 to 0.8 and then diluted to OD600=0.01. From a serial dilution of each antibiotic at (50 μL of 2× concentrated stock solutions) several concentrations were added to the wells of a sterile, transparent round-bottom 96-well plate (Phenix Research Products, Candler, N.C.), and diluted cells (50 μL) were added to the plates for a starting OD600 of 0.005. […] A row of wells lacking test compound but containing the antibiotic was used to determine the MIC of that antibiotic alone. A column of wells lacking both antibiotic and test compound served as a growth control, and an additional column containing only CAMHB was included as a sterile blank control.
The plates were incubated for 18 to 20 h at 37° C. in an orbital shaker, and the cell density (OD600) was determined the following day in a microplate reader (PolarStar Optima, BMG Labtech). The MIC shift was determined by comparing the MIC of the antibiotic alone to the MIC of the antibiotic plus test compound.

Row | SMILES | colistin MIC shift, Ab23 at (compd concentration)
1 | Cc1cccc2c(NCCCN(C)C)nc(-c3cc(-c4ccncc4)cc(C(F)(F)F)c3)nc12 [compound 336] | 8-16x
2 | CN(C)CCCNc1nc(-c2cc(-c3ccccc3)cc(C(F)(F)F)c2)nc2c(Cl)cccc12 [compound 340] | 8-16x
3 | Cc1cccc2c(NCCCN(C)C)nc(-c3cc(-c4ccccc4F)cc(C(F)(F)F)c3)nc12 [compound 341] | 8-16x
4 | Cc1cccc2c(NCCCN(C)C)nc(-c3cccc(-c4cc(F)cc(C(F)(F)F)c4)c3)nc12 [compound 344] | 8-16x
5 | Cc1cccc2c(NCCCN(C)C)nc(-c3cc(-c4cncs4)cc(C(F)(F)F)c3)nc12 [compound 346] | 8-16x
6 | Cc1cccc2c(NCCCN3CCCCC3)nc(-c3cc(Br)cc(C(F)(F)F)c3)nc12 [compound 347] | 8-16x
7 | CNCCCN(C)c1nc(-c2cc(-c3ccccc3)cc(C(F)(F)F)c2)nc2c(C)cccc12 [compound 349] | 8-16x
8 | CNCCCN(C)c1nc(-c2cccc(-c3cc(F)cc(C(F)(F)F)c3)c2)nc2c(Cl)cccc12 [compound 350] | 8-16x
9 | CN(C)CCCNc1nc(-c2cccc(-c3ccccc3Cl)c2)nc2c(Cl)cccc12 [compound 351] | 8-16x
10 | CCN(CC)CCCNc1nc(-c2cc(Br)cc(C(F)(F)F)c2)nc2c(C)cccc12 [compound 352] | 8-16x
11 | Cc1cccc2c(NCCCN3CCN(C)CC3)nc(-c3cc(Br)cc(C(F)(F)F)c3)nc12 [compound 354] | 8-16x
12 | Cc1cccc2c(NCCCN(C)C)nc(-c3cccc(-c4ccc(C(F)(F)F)c(F)c4)c3)nc12 [compound 355] | 8-16x
13 | CN(C)CC(=O)n1cc(-c2ccc(Cl)c(Cl)c2)c2cc(Cl)ccc21 [compound 362] | 16x
14 | Clc1ccc(/C=C/c2c[nH]c3ccc(Br)cc23)cc1Cl [compound 363] | ≧16x (2 μM)
15 | Clc1ccc2[nH]cc(/C=C/c3ccc(Cl)c(Cl)c3)c2c1 [compound 365] | ≧16x (2 μM)
16 | Fc1ccc2c(/C=C/c3cccc(Cl)c3Cl)c[nH]c2c1 [compound 383] | ≧16x (2μM)

Same assay, conditions: compound concentration 4 μM; fold shift of colistin MIC; nc = no changeover or no shift

Row | SMILES | colistin MIC shift, Ab23 at (compd concentration)
17 | CN(C)CCCNc1nc(/C=C/c2ccc(Cl)c(Cl)c2)nc2c([N+](=O)[O-])cccc12 [compound 302] | 16x
18 | CCN(CC)CCCC(C)Nc1nc(/C=C/c2ccc(Cl)c(Cl)c2)nc2c(C)cccc12 (stereo not drawn) [compound 313] | 8x
19 | CN(C)CCCN(C)c1nc(/C=C/c2ccc(Cl)c(Cl)c2)nc2cc(Cl)c(Cl)cc12 [compound 327] | 8-16x
20 | CN(C)CCCNc1nc(/C=C/c2ccc(F)c(Cl)c2)nc2c(C(F)(F)F)cccc12 [compound 329] | 8x
21 | CN(C)CCCNc1nc(/C=C/c2ccc(F)c(F)c2)nc2c(C(F)(F)F)cccc12 [compound 330] | 2x
22 | CN(C)CCCNc1nc(/C=C/c2cc(C(F)(F)F)c(C(F)(F)F)cc2C(F)(F)F)nc2c(C(F)(F)F)cccc12 [compound 331] | 16x
23 | CN(C)CCCNc1nc(/C=C/c2ccc(F)c(C(F)(F)F)c2)nc2c(C(F)(F)F)cccc12 [compound 332] | 16x
24 | CN(C)CCCNc1nc(/C=C/c2cc(Cl)ccc2Cl)nc2c(C(F)(F)F)cccc12 [compound 335] | 16x
25 | CN(C)CCCn1cc(/C=C/c2ccc(Cl)c(Cl)c2)c2cc(Br)ccc21 [compound 356] | 16-64x
26 | CN1CCN(CCn2cc(/C=C/c3ccc(Cl)c(Cl)c3)c3ccc(F)cc32)CC1 [compound 357] | 4-8x
27 | CN(C)CCCn1cc(-c2ccc(Cl)c(Cl)c2)c2cc(Cl)ccc21 [compound 359] | 16x
28 | Clc1ccc(/C=C/c2c[nH]c3ccc(Br)cc23)cc1Cl [compound 363] | 32-64x (4 μM);
29 | FC(F)(F)c1ccc2c(/C=C/c3ccc(Cl)c(Cl)c3)c[nH]c2c1 [compound 364] | 32-64x
30 | Clc1ccc2[nH]cc(/C=C/c3ccc(Cl)c(Cl)c3)c2c1 [compound 365] | 16-64x (4 μM);
31 | Fc1ccc2c(/C=C/c3ccc(Cl)c(Cl)c3)c[nH]c2c1 [compound 366] | 16-32x
32 | Clc1ccc(/C=C/c2c[nH]c3cc(Br)ccc23)cc1Cl [compound 367] | 16-32x
33 | Fc1ccc2[nH]cc(/C=C/c3ccc(Cl)c(Cl)c3)c2c1 [compound 368] | 16-32x
34 | FC(F)(F)c1ccc2[nH]cc(/C=C/c3ccc(Cl)c(Cl)c3)c2c1 [compound 369] | 32x
35 | Cc1ccc2[nH]cc(/C=C/c3ccc(Cl)c(Cl)c3)c2c1 [compound 370] | 32x
36 | FC(F)(F)c1cccc2[nH]cc(/C=C/c3ccc(Cl)c(Cl)c3)c12 [compound 371] | 32x
37 | Fc1cccc2[nH]cc(/C=C/c3ccc(Cl)c(Cl)c3)c12 [compound 372] | 8-32x
38 | COc1ccc2[nH]cc(/C=C/c3ccc(Cl)c(Cl)c3)c2c1 [compound 373] | 8-16x
39 | Clc1ccc(/C=C/c2c[nH]c3cc(Cl)c(Cl)cc23)cc1Cl [compound 374] | 16x
40 | N#Cc1ccc2[nH]cc(/C=C/c3ccc(Cl)c(Cl)c3)c2c1 [compound 375] | 2x
41 | Fc1ccc2c(/C=C/c3ccc(Br)c(Br)c3)c[nH]c2c1 [compound 378] | 16-32 x
42 | O=[N+]([O-])c1ccc2[nH]cc(/C=C/c3ccc(Cl)c(Cl)c3)c2c1 [compound 379] | 8x
43 | O=[N+]([O-])c1ccc2[nH]cc(/C=C\c3ccc(Cl)c(Cl)c3)c2c1 [compound 380] | 8x
44 | Fc1ccc2c(/C=C/c3cccc(Cl)c3Cl)c[nH]c2c1 [compound 383] | 32x (4 μM);

Same assay, conditions: compound concentration 8 μM; fold shift of colistin MIC; nc = no changeover or no shift

Row | SMILES | colistin MIC shift, Ab23 at (compd concentration) [x]
45 | CN(C)CCCn1nc(-c2ccc(Cl)c(Cl)c2)c2ccc(C(F)(F)F)cc21 [559a] | 8
46 | CN(C)CC(=O)n1nc(-c2ccc(Cl)c(Cl)c2)c2ccc(C(F)(F)F)cc21 [559b] | 8
47 | CN(C)CCn1nc(-c2ccc(Cl)c(Cl)c2)c2ccc(C(F)(F)F)cc21 [559c] | 2
48 | CN(C)CCCNc1nc(/C=C/c2ccc(Br)cc2)nc2cc(Cl)ccc12 [compound 301] | 8
